Source: PMC13450841 (PLOS Pathogens, 2026)
Entries after “also recorded” stand apart in the source; their conditions may differ. Read-outs that look alike come from different tables or passages of the source. Where a SMILES comes first, the peptide text is derived from it.

What was measured:
ExoU [1] = target: T1, ExoU (Pseudomonas aeruginosa, UniProt O34208); assay: ExoU in vitro phospholipase assay (real-time, dose-response); assay type: biochemical; conditions: for Inhibition of ExoU phospholipase activity (in words): real-time phospholipase assay, Fig 2A, 2B, 2E
EGFP-tagged ExoU (S142A) = assay: EGFP-ExoU (S142A) abundance and lysosome colocalisation in transfected HEK293T cells
P. aeruginosa PA103 [2] = assay type: in vivo, Galleria mellonella
human PLA2G7 = target: T2, human PLA2G7 (Homo sapiens, UniProt Q13093); assay: Human phospholipase assay, 2-thio-PAF substrate; assay type: biochemical; conditions: 10 µM, S4 Fig
T2 construct: 6xHis (N); made in house; host or cells: E. coli C43(DE3)
T2 sequence (Q13093 22-441): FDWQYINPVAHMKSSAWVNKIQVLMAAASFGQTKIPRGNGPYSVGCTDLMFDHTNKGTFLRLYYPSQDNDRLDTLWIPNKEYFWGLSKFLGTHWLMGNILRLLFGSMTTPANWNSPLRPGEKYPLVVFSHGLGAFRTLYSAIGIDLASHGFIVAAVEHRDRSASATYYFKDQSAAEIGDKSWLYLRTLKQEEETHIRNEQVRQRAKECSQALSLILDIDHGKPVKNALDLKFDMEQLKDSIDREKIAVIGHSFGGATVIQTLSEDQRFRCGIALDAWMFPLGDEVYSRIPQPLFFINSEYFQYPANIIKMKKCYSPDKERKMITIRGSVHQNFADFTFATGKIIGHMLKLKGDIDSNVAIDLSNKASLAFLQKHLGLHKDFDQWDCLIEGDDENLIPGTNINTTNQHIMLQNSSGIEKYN

ExoU [3] = target: T1, ExoU; assay: nanoDSF thermal stability of ExoU; assay type: binding; conditions: 10 µM compound; for ΔTm at 10 µM: read-out: Decrease of ExoU Tm
Experimental: Thermal stability of recombinant His₆-ExoU was assessed using a Prometheus NT.48 instrument (NanoTemper Technologies, Cambridge, UK) without extrinsic dyes, as these were not compatible with the use of PIP2. ExoU was diluted to 5 µM in 20 mM TrisHCl-HCl (pH 8.2), 100 mM NaCl, and 10% (v/v) glycerol. To evaluate ligand effects, four samples were prepared: ExoU alone, ExoU with 5 µM PIP2, ExoU with 10 µM inhibitor, and ExoU with both 5 µM PIP2 and 10 µM indicated inhibitor, each maintaining 1% (v/v) DMSO. Ten microliters of each mixture were loaded into highsensitivity-sensitivity nanoDSF glass capillaries and subjected to a thermal ramp from 25 °C to 95 °C at 1 °C/min. Intrinsic tryptophan fluorescence emission at 330 nm and 350 nm was recorded continuously, and the ratio F₃₅₀/F₃₃₀ was plotted against temperature. Melting temperatures (Tₘ) were determined from the inflection point of the first derivative of the fluorescence ratio using the manufacturer’s analysis software. All conditions were measured in triplicate. Changes in melting temperature (Δ Tₘ) compared to DMSO, or DMSO PIP2 controls were plotted using GraphPad.
Supplementary file ppat.1014474.s008.tif: S7 Fig Nano differential scanning fluorimetry (nanoDSF) analysis of ExoU thermal stability in the presence of compounds. Raw melt curves of recombinant ExoU are shown in the absence (left) and presence (right) of PIP2 (5 µM) from three independent (A-C) experiments. Compounds were tested at 10 µM. Intrinsic tryptophan fluorescence emission was continuously monitored at 330 nm and 350 nm as the temperature increased, and the fluorescence ratio (F₃₅₀/F₃₃₀) was plotted against temperature. Melting temperatures (Tₘ) were calculated from the average inflection point of the first derivative of the fluorescence ratio using the manufacturer’s analysis software. (TIF)

PLA2G4C = target: T3, PLA2G4C (Homo sapiens, UniProt Q9UP65); assay: Human phospholipase assay, thio-BGPC substrate; assay type: biochemical; conditions: 10 µM, S4 Fig
T3 construct: 6xHis (N); made in house; host or cells: E. coli C43(DE3)
T3 sequence (Q9UP65 1-541): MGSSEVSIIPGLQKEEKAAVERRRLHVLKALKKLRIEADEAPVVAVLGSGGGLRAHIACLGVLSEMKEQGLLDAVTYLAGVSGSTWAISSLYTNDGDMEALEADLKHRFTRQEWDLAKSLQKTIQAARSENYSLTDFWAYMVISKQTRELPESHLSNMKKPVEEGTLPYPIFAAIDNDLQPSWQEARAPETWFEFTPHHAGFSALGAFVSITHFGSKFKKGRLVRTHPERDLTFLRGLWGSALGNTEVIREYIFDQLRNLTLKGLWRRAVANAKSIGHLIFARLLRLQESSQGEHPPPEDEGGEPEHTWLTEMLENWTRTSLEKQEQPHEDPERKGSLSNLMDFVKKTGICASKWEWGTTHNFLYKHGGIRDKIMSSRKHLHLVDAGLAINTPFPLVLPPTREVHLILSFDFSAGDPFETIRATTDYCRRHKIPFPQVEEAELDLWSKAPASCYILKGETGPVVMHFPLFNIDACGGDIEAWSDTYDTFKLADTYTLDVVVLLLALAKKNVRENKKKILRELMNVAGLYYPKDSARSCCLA
Experimental: Recombinant human PLA2G7 and PLA2G4C activities were measured in 96well, -well, UVtransparent microplates (Corning) in a final volume of 50 µL per well. Reactions were carried out in 20 mM […] TrisHCl-HCl (pH 8.2), 100 mM NaCl, and 0.01% Tween 20, with a 1% (v/v) final DMSO concentration. For PLA2G7, substrate cleavage was monitored using 0.6 mM 2-thio-PAF (Cambridge Bioscience Ltd), and for PLA2G4C, 0.6 mM arachidonoyl thio-bis-glycerophosphocholine (thioBGC-BGC; Cambridge Bioscience Ltd) was employed. In both assays, 1 mM DTNB (5,5′-dithiobis-(2nitrobenzoic acid), -nitrobenzoic acid), SigmaAldrich-Aldrich) served as the chromogenic reporter. Enzyme (500 nM final) was preequilibrated with buffer at 25 °C for 5 min before initiating-equilibrated with buffer at 25 °C for 5 min before initiating the reaction by substrate addition. Absorbance at 414 nm was recorded every minute for 1 h on a Hidex plate reader.
(B) ExoU activity was assessed using arachidonoyl thio-phosphatidylcholine (thio-PC) in the presence of 10 µM of the indicated compound. […] (TIF)

[4] = test system: HCE-T cells infected with exoU⁺ clinical P. aeruginosa keratitis isolates; assay: CellDiscoverer 7 high-content screen, exoU+ isolates; assay type: cell-based, human; conditions: 4.5 h post-infection; Bis 10 µM, Zp 2.5 µM, Pol 1 µM; DMSO ~43%
P. aeruginosa PA103 [5] = test system: P. aeruginosa PA103; set-up: species or system porcine; conditions: 48 hours
[6] = test system: T3SS gene expression in P. aeruginosa PA103 and PAO1; assay: Quantitative RT-PCR of T3SS gene expression; assay type: cell-based, Pseudomonas aeruginosa; conditions: Bis 10 µM, Zp 2.5 µM, Pol 1 µM in LB
ExoU [7] = target: T1, ExoU; assay: BS3 cross-linking and SDS-PAGE of ExoU oligomerisation; conditions: 10 µM inhibitor
Experimental: Four reaction mixtures (50 µL each) were prepared at room temperature: ExoU alone; ExoU with 5 µM PIP2; ExoU with 10 µM inhibitor; and ExoU with both 5 µM PIP2 and 10 µM inhibitor for 30 minutes at 25 °C. […] Reactions were quenched by addition of Tris HCl pH 7.4 to 50 mM and a further 15 min incubation at room temperature. […] Membranes were blocked in TBST containing 5% (w/v) non-fat milk for 1 h, then incubated overnight at 4 °C with mouse anti-His monoclonal antibody (Bio Rad; 1:2,000). After washing in TBST, membranes were incubated with HRP-conjugated goat anti-mouse IgG for 1 h at room temperature. Signal was detected by chemiluminescence with X ray film exposure, and band patterns were analysed to determine the distribution of monomeric and oligomeric ExoU species under each condition.

[8] = test system: primary human corneal epithelial cells
in vitro = conditions: human, primary human corneal (limbal) epithelial cells
P. aeruginosa PA103 [9] = conditions: read-out: IC50 of bacterial growth
[10] = test system: PA103-infected HCE-T cells; assay: LDH release assay in PA103-infected scratched HCE-T cells; assay type: cell-based, human; conditions: 2.5 µM compound, PA103 MOI 10, 4 hours, S6 Fig
Text: Percentage lysis was normalized to the maximal LDH release from the kit positive control (CyQUANT; Thermo Fisher). (TIF)

[11] = Fig 1B dose-response, PIP2 and ubiquitin present, read-out: IC50 for ExoU inhibition in vitro
[12] = Fig 2C dose-response phospholipase assays, read-out: IC50 of bismuth-based ExoU inhibitors and subcitrate alone
[13] = Fig 3C, three-parameter fit, read-out: IC50 for ExoU inhibition, individual inhibitors or equimolar combinations

Molecule: CCN(CC)CCN(Cc1ccc(-c2ccc(C(F)(F)F)cc2)cc1)C(=O)Cn1c(SCc2ccc(F)cc2)nc(=O)c2c1CCC2 [darapladib]
- ExoU activity with arachidonoyl thio-PC substrate (ExoU [1]; 10 µM compound, S4 Fig): did not inhibit ExoU activity

Molecule: lauric acid–Asp–Thr–Dab [Poltide 2]
- IC50 for ExoU inhibition, polymyxin B and poltide analogues (ExoU [1]; Fig 2E): no effect on ExoU activity

Molecule: On1ccccc1=S.On1ccccc1=S.[Cu] [copper pyrithione]
- Inhibition of ExoU phospholipase activity (in words) (ExoU [1]): Neither copper pyrithione, nor pyrithione inhibited ExoU

Molecule: COc1cc2c(cc1OC)[C@@H](Cc1cc(OC)c(OC)c(OC)c1)[N+](C)(CCCOC(=O)CC/C=C/CCC(=O)OCCC[N+]1(C)CCc3cc(OC)c(OC)cc3[C@H]1Cc1cc(OC)c(OC)c(OC)c1)CC2 (stereo partly shown) [mivacurium chloride]
- IC50 (ExoU [1]; [11]): 6 ± 1.8 µM

Molecule: [Cl][Bi]([Cl])[Cl] [Bismuth chloride, bismuth chloride]
- IC50 (ExoU [1]; [12]): 9.2 µM

Molecule: CC(=O)Oc1ccc(C(=C2CCCCC2)c2ccc(OC(C)=O)cc2)cc1 [cyclofenil]
- IC50 (ExoU [1]; [11]): 20.2 ± 2.8 µM

Molecule: O=C([O-])CC(O)(CC(=O)[O-])C(=O)[O-].O=C([O-])CC(O)(CC(=O)[O-])C(=O)[O-].[Bi+3].[K+].[K+].[K+] [Bis, bismuth subcitrate]
- Level of EGFP-tagged ExoU (S142A) by Western blot (EGFP-tagged ExoU (S142A); 5 µM, 16 h): substantially reduced
- EGFP-ExoU (S142A) fluorescence and localisation (confocal) (EGFP-tagged ExoU (S142A); 16 h): marked reduction; also recorded: redistributed into punctate structures that co-localised with RFP-LAMP1
- Pearson's correlation coefficient r, ExoU-lysosome (RFP-LAMP1) colocalisation (EGFP-tagged ExoU (S142A); 16 h compound treatment, DMSO r = 0.05): 0.49
- IC50 (ExoU [1]; [11]): 12.8 ± 1 µM
- IC50 (ExoU [1]; [12]): 9.9 µM
- IC50 (ExoU [1]; [13]): 13.3 ± 2.9 µM
- Clinical score: mean±SD (health score 0-9) (P. aeruginosa PA103 [2]; PA103 1 × 10⁵ CFU, Bis 0.1 mg/g, Zp 0.01 mg/g, Pol 0.004 mg/g, 40 h): 4.17 ± 3.89
- Median survival (P. aeruginosa PA103 [2]; PA103-infected larvae, PA103 alone 16): 16 h
- Delay of disease progression (P. aeruginosa PA103 [2]; in a subset of larvae): approximately 8 h
- Inhibition of PLA2G7 enzymatic activity (human PLA2G7): neither Bis, Pol, nor Zp inhibited enzymatic activity
- Decrease of ExoU Tm (ExoU [3]; absence of PIP2): no measurable effect
- Decrease of ExoU Tm (ExoU [3]; with 5 µM PIP2): ~ 2 °C
- Inhibition of PLA2G4C (PLA2G4C): no inhibition
- Mean live-cell area relative to non-infected controls [4]: 55.8%
- Histology (H&E) of infected corneas (P. aeruginosa PA103 [5]): partial epithelial preservation and less stromal damage
- Corneal opacity (P. aeruginosa PA103 [5]; Bis 5 µM, Zp 2.5 µM, Pol 1 µM topical): performing slightly better than Zp
- Expression of exsA, pcrV, exoU in PA103, or exsA, pcrV, exoS in PAO1 [6]: no significant changes
- Migration of BS3 cross-linked ExoU on SDS-PAGE (ExoU [7]; with PIP2): single discrete high‐molecular‐weight band
- Migration of BS3 cross-linked ExoU on SDS-PAGE (ExoU [7]; without PIP2): did not alter this profile

Molecule: CC[C@H](C)CCCCC(=O)N[C@@H](CCN)C(=O)N[C@H](C(=O)N[C@@H](CCN)C(=O)N[C@H]1CCNC(=O)[C@H]([C@@H](C)O)NC(=O)[C@H](CCN)NC(=O)[C@H](CCN)NC(=O)[C@H](CC(C)C)NC(=O)[C@@H](Cc2ccccc2)NC(=O)[C@H](CCN)NC1=O)[C@@H](C)O [Pol, polymyxin B] (HELM PEPTIDE1{[CC[C@H](C)CCCCC(=O)[*:2]].[Dab].T.[Dab].[Dab].[Dab].[dF].L.[Dab].[Dab].T}$PEPTIDE1,PEPTIDE1,5:R3-11:R2$$$V2.0)
- LD50 (LDH release) [8]: 42.5 ± 10.6 µM
- IC50 (ExoU [1]; [11]): 13.1 ± 1.7 µM
- IC50 (ExoU [1]; [13]): 11.6 ± 0.9 µM
- IC50 (ExoU [1]; IC50 for ExoU inhibition, polymyxin B and poltide analogues, Fig 2E): 13 µM
- ΔTm at 10 µM (ExoU [3]; absence of PIP2): -3.8 °C
- ΔTm at 10 µM (ExoU [3]; with 5 µM PIP2): -6.2 °C
- CC50 at 48 h (in vitro): 43 µM
- IC50 (P. aeruginosa PA103 [9]; in DMEM/F-12 supplemented with 10% (v/v) FBS): 2.1 µM
- IC50 (P. aeruginosa PA103 [9]; in LB): 0.75 µM

Molecule: O=S(=O)([O-])[O-].[Zn+2] [zinc sulphate]
- Inhibition of ExoU phospholipase activity (in words) (ExoU [1]): inhibited ExoU phospholipase activity
- Mean lysis (LDH release) [10]: 89%

Molecule: CC[C@H](C)CCCCC(=O)O [(S)-6-methyloctanoic acid]
- Inhibition of ExoU phospholipase activity (in words) (ExoU [1]): failed to inhibit ExoU

Molecule: [H]/N=C(\N/C(=N/[H])NCCCCCCNC(=N)NC(=N)Nc1ccc(Cl)cc1)Nc1ccc(Cl)cc1 [chlorhexidine]
- IC50 (ExoU [1]; [11]): 18.5 ± 3.3 µM

Molecule: [O-][n+]1ccccc1S [pyrithione]
- Inhibition of ExoU phospholipase activity (in words) (ExoU [1]): Neither copper pyrithione, nor pyrithione inhibited ExoU

Molecule: subcitrate
- IC50 of bismuth-based ExoU inhibitors and subcitrate alone (ExoU [1]; Fig 2C dose-response phospholipase assays): No inhibition
